{"source": "patent US8329141B2", "about": "“Locoregional internal radionuclide ablation of abnormal tissues” (Board of Regents, The University of Texas System, priority 2004, dated 2012)", "system": "rat mammary cancer 13762F tumor cells", "test": "In vivo tumor growth after intratumoral injection of radiopharmaceuticals (rat mammary cancer model)", "set-up": "species or system Fischer 344 female rats", "procedure": "The radionuclides YCl3, ^111In—Cl, and ^201Tl—Cl were obtained from a local supplier of radioisotopes, Iso-Tex Diagnostics (Friendswood, Tex.). YCl3 obtained from the supplier was in an acidic preparation with a pH of 2-3, and was subsequently diluted in saline to a final pH of about 4-6 before injection. Initial activities of ^111In—Cl and YCl3 were about 200-500 mCi/ml, and dilution were made with preservative-free saline. YIMA was prepared by co-precipitation, as set forth in U.S. Ser. No. 10/724,027. Briefly, 500 μl of FeCl3 (1 mg Fe/ml) was added to 30 μl of ^90Y chloride (20-40 μCi/30 μl), and either 30 μl of NaOH (1.0 N) or 10 μl of NH4OH (20.0%) was added to the solution to reach a pH of about 7.0 to 9.0. Co-precipitated YIMA radiopharmaceutical macroaggregates were then separated from remaining soluble radionuclides by centrifuging the reactions from 1500 RPM to 3000 RPM×5 minutes, and filtered using a Millipore Nylone (size: 0.45 μm, diameter: 13 mm) to isolate the radiopharmaceutical macroaggregates.\nThe rat model of in vivo tumor growth was generated as follows. On day zero, 100,000 rat mammary cancer 13762F tumor cells were implanted in a volume of 0.15 ml into the right thigh muscle of Fischer 344 female rats weighing approximately 160 grams. […] YIMA was injected in a volume of 0.2 ml on days 3-7 after tumor implantation. Tumor sizes and body weights of the rats were monitored regularly (5 times a week) for several weeks, or until the tumors grew beyond 2.5 cm, at which time the rats were euthanized.", "key": {"[1]": {"settings": "locoregional administration in rats"}}, "data": [{"smiles": "[Cl][90Y]([Cl])[Cl]", "note": "[YCl3, Yttrium-90 chloride]", "values": [{"measurement": "tumor development", "setting": "1 mCi intratumoral on day 10 in 0.1-0.2 ml saline, FIG. 2", "value": "significantly suppressed"}, {"measurement": "tumor growth", "setting": "100 μCi intratumoral on day 10 in 0.1-0.2 ml saline, FIG. 2", "value": "not significantly suppressed"}, {"measurement": "tumor development", "setting": "200 μCi intratumoral on day 10 in 0.1-0.2 ml saline, FIG. 2", "value": "significantly suppressed"}, {"measurement": "tumor development", "setting": "500 μCi intratumoral on day 10 in 0.1-0.2 ml saline, FIG. 2", "value": "significantly suppressed"}, {"measurement": "tumor growth", "setting": "FIG. 3, in 0.2-0.3 ml saline, YCl3 0.3, 0.6, 1.5 mCi, ^111In—Cl 0.6, 1.2, 2.4, 4.8 mCi, ^67Ga 0.6 mCi", "value": "significantly suppressed tumor growth"}, {"measurement": "tumor growth", "setting": "FIG. 4, in 0.5 ml saline, YCl3 0.5, 1.0, 2.0 mCi, ^111In—Cl 1.0, 4.0 mCi, FDG 1.0, 2.0, 3.0 mCi, ^67Ga—Fe 1.77 mCi", "value": "significantly suppressed tumor growth"}, {"measurement": "tumor growth", "setting": "at least 200 μCi intratumoral, FIG. 2", "value": "clearly suppressed"}, {"measurement": "dose equivalent for humans at which mortality occurred", "setting": "[1]", "value": 350, "unit": "mCi/70 Kg"}, {"measurement": "lowest dose with consistently observed local tumor suppression effects", "setting": "[1]", "value": 0.2, "unit": "mCi"}, {"measurement": "mortality after locoregional administration", "setting": "rats, sporadically, at high dose equivalents for humans (e.g., 350 mCi/70 Kg)", "value": "some mortality was observed"}]}]}
